Reference: patent US20220315624A1, “THIOSTREPTON ANALOGS AND METHODS OF MAKING AND USING SAME” (YALE UNIVERSITY, priority 2019, published 2022)
In brackets after ≈: the same amount, converted by molar mass.

Key:
[1] = Un-inoculated solubility control plate (drug precipitation); type: physicochemical
[2] = tested on: Gram-positive cocci; assay: MIC broth microdilution, overall summary; type: cell-based; settings: summary of MIC testing
Description: (§1) Twenty-four test agents were shipped to Micromyx and stored at −20° C. until assayed. The compounds were dissolved in 100% DMSO at 6.46 mg/mL prior to testing. Comparator drugs were supplied by Micromyx and were handled as described below:
(§2) The test organisms for the assay were recent clinical isolates or reference strains acquired from the American Type Culture Collection (ATCC; Manassas, Va.). Upon receipt, the isolates were streaked onto Trypticase Soy Agar II+5% sheep blood (TSAB). Colonies were harvested from the plates and a cell suspension was prepared in Trypticase Soy Broth containing cryoprotectant. Aliquots were then frozen at −80° C. Prior to the assay, the frozen seeds of all bacterial isolates to be tested were thawed and streaked for isolation onto TSAB (BD/BBL, Sparks, Md.; Lot No. 9011894), and were incubated overnight at 35° C.
(§3) The test medium for all isolates was cation-adjusted Mueller Hinton broth (CAMHB; BD/BBL; Lot No. 8190586). CAMHB (Cation Adjusted Mueller Hinton Broth) was supplemented with 3% (v/v) lysed horse blood (LHB; Hemostat, Dixon, Calif.; Lot No. 474990) for the testing of streptococci.
(§4) MIC values were determined using a broth microdilution method as recommended by CLSI. Automated liquid handlers (Multidrop 384, Labsystems, Helsinki, Finland; Biomek 2000 and Biomek F/X, Beckman Coulter, Fullerton Calif.) were used to conduct serial dilutions and make liquid transfers.
(§5) The wells of standard 96-well microdilution plates (Costar 3795, Corning Inc., Corning, N.Y.) were filled with 150 μL of the appropriate diluent in columns 2-12 on the Multidrop 384 (DMSO for the thiostrepton analogs, deionized H2O for vancomycin and ceftazidime). These plates were used to prepare the drug “mother plate” which provided the serial drug dilutions for the replicate “daughter plates”. The compounds (300 μL) were dispensed at 101× the highest concentration to be tested into the appropriate row of the “mother plate”. The Biomek 2000 was used to transfer 150 μL of each stock solution from the wells in Column 1 of the mother plate to make ten subsequent 2-fold serial dilutions. The wells of Column 12 contained no drug and served as the organism growth control wells. The daughter plates were loaded with 190 μL of test medium using the Multidrop 384.
The daughter plates were prepared on the Biomek F/X instrument which transferred […] of drug solution from each well of the mother plate to each corresponding well of each daughter plate in a single step. […]
Plates were stacked 3 high, covered with a lid on the top plate, placed in plastic bags, and incubated at 35° C. for 16-20 hr for all organisms except streptococci which were incubated for 20-24 hr. […] The MIC was read and recorded as the lowest concentration of drug that inhibited visible growth of the organism. […]

[3] = Aqueous solubility analysis in MOPS buffer; type: physicochemical; settings: aqueous 10 mM MOPS buffer, thermodynamic from solid; after 24 hours in 10 mM aqueous MOPS buffer, pH 7.2
Description: A 2 dram vial was loaded with ˜0.5 mg of a thiostrepton derivative and suspended in ˜4 mL of aqueous 10 mM MOPS buffer (pKa 7.2). The suspension was stirred vigorously for 24 h to ensure equilibration, then filtered through a […] centrifuge filtration unit. A 3.0 mL aliquot was concentrated, and the dried residue was diluted with 0.30 mL of 1:1 1,4-dioxane/H2O (10× original concentration necessitated by detection limits). The total UV absorbance (200-300 nm) was measured in triplicate by UPLC runs with a photodiode array detector. A calibration curve for each compound was created using data points from 3 trials each of concentrations in 1:1 1,4-dioxane/H2O ranging from […]. These concentrations were plotted against their respective average absorbances. The experimental concentration of each compound was calculated by dividing the found μg/mL value by the residue concentration factor of 10 to yield the actual solubility value.

[4] = tested on: E. faecalis and E. faecium; assay: MIC broth microdilution, summary over enterococci; type: cell-based; settings: across the evaluated enterococci, VSE and VRE
Description: as §1, §2, §3, §4, §5
(§6) The daughter plates were prepared on the Biomek F/X instrument which transferred […] of drug solution from each well of the mother plate to each corresponding well of each daughter plate in a single step. The wells of the daughter plates ultimately contained 190 μL of media, 2 μL of drug solution, and 10 μL of inoculum prepared as described below. The final concentration of DMSO (if used as a solvent) in the test well was 1%.
(§7) A standardized inoculum of each organism was prepared per CLSI methods. A suspension of organisms from a fresh plate was prepared in CAMHB to equal the turbidity of a 0.5 McFarland standard. The suspensions were diluted 1:20 in CAMHB, or in the case of streptococci CAMHB with LHB. The inoculum for each organism was dispensed into sterile reservoirs divided by length (Beckman Coulter), and the Biomek 2000 was used to inoculate the plates. Daughter plates were placed on the Biomek 2000 work surface reversed so that inoculation took place from low to high drug concentration. The Biomek 2000 delivered 10 μL of standardized inoculum into each well. These dilutions yielded a final cell concentration in the daughter plates of approximately 5.0×10^5 CFU/mL.
(§8) Plates were stacked 3 high, covered with a lid on the top plate, placed in plastic bags, and incubated at 35° C. for 16-20 hr for all organisms except streptococci which were incubated for 20-24 hr. Following incubation, the microplates were removed from the incubator and viewed from the bottom using a plate viewer. The MIC was read and recorded as the lowest concentration of drug that inhibited visible growth of the organism. […]

[5] = tested on: E. faecalis MMX 486 VRE; assay: MIC broth microdilution; type: cell-based; settings: Enterococcus faecalis; E. faecalis MMX 486 VRE; CAMHB; read-out: MIC
Description: as §1, §2, §3, §4, §5, §6, §7, §8

[6] = tested on: S. pneumoniae ATCC 49619 PISP; assay: MIC broth microdilution; type: cell-based; settings: Streptococcus pneumoniae, ATCC49619, 20 h; S. pneumoniae ATCC 49619 PISP; CAMHB with 3% lysed horse blood; read-out: MIC
Description: as §1, §2, §3, §4, §5, §6, §7, §8

[7] = tested on: S. pyogenes ATCC 19615; assay: MIC broth microdilution; type: cell-based; settings: Streptococcus pyogenes, ATCC19615, 20 h; S. pyogenes ATCC 19615; CAMHB with 3% lysed horse blood; read-out: MIC
Description: as §1, §2, §3, §4, §5, §6, §7, §8

[8] = tested on: E. coli ATCC 25922; assay: MIC broth microdilution; type: cell-based; settings: Escherichia coli, ATCC25922; E. coli ATCC 25922; CAMHB; read-out: MIC
Description: as §1, §2, §3, §4, §5, §6, §7, §8

[9] = tested on: S. aureus MMX 8088 MRSA; assay: MIC broth microdilution; type: cell-based; settings: Staphylococcus aureus; S. aureus MMX 8088 MRSA; CAMHB; read-out: MIC
Description: as §1, §2, §3, §4, §5, §6, §7, §8

[10] = tested on: E. faecalis ATCC 29212 VSE; assay: MIC broth microdilution; type: cell-based; settings: Enterococcus faecalis, ATCC29212; E. faecalis ATCC 29212 VSE; CAMHB; read-out: MIC
Description: as §1, §2, §3, §4, §5, §6, §7, §8

[11] = tested on: E. faecium MMX 485 VRE; assay: MIC broth microdilution; type: cell-based; settings: Enterococcus faecium; E. faecium MMX 485 VRE; CAMHB; read-out: MIC
Description: as §1, §2, §3, §4, §5, §6, §7, §8

[12] = tested on: E. faecium MMX 708 VSE; assay: MIC broth microdilution; type: cell-based; settings: Enterococcus faecium, MMX708VSE; E. faecium MMX 708 VSE; CAMHB; read-out: MIC
Description: as §1, §2, §3, §4, §5, §6, §7, §8

[13] = tested on: S. aureus ATCC 29213 MSSA; assay: MIC broth microdilution; type: cell-based; settings: Staphylococcus aureus; S. aureus ATCC 29213 MSSA; CAMHB; read-out: MIC
Description: as §1, §2, §3, §4, §5, §6, §7, §8

[14] = tested on: S. aureus isolates; assay: MIC broth microdilution, S. aureus isolates; type: cell-based; settings: Staphylococcus aureus; across MSSA and MRSA isolates; read-out: MIC values against S. aureus isolates
Description: as §1, §2, §3, §4, §5, §6, §7, §8

| Precipitation in CAMHB ([1]; at 64 μg/mL in CAMHB) | solubility at 24 h [3] | MIC values against E. faecalis and E. faecium [4] | MIC ([4]; read-out: MIC values against E. faecalis and E. faecium) | MIC [5] | MIC [6] | MIC [7] | MIC [8] | MIC [9] | MIC [10] | MIC [11] | MIC [12] | MIC [13] | MIC [14] | Precipitation in CAMHB in LHB ([1]; at 64 μg/mL in CAMHB in LHB) | SMILES | Activity among the evaluated analogs / against evaluated Gram-positive cocci (summary in words) [2] |
| --- | --- | --- | --- | --- | --- | --- | --- | --- | --- | --- | --- | --- | --- | --- | --- | --- |
| distinct precipitation | < 1 µg/mL | 0.5 µg/mL (≈ 0.272 µM) | 0.25 µg/mL (≈ 0.136 µM) | 0.25 µg/mL (≈ 0.136 µM) | < 0.001 µg/mL | < 0.001 µg/mL | > 64 µg/mL | 0.5 µg/mL (≈ 0.272 µM) | 0.5 µg/mL (≈ 0.272 µM) | 0.25 µg/mL (≈ 0.136 µM) | 0.25 µg/mL (≈ 0.136 µM) | 0.5 µg/mL (≈ 0.272 µM) | 0.25 to 0.5 µg/mL (≈ 0.136 to 0.272 µM) | – | C=C(NC(=O)c1csc(C2=N[C@@H]3c4csc(n4)[C@H]4NC(=O)c5csc(n5)[C@H]([C@](C)(O)[C@@H](C)O)NC(=O)C5CSC(=N5)/C(=C/C)NC(=O)[C@H]([C@@H](C)O)NC(=O)c5csc(n5)[C@]3(CC2)NC(=O)[C@H](C)NC(=O)C(=C)NC(=O)[C@H](C)NC(=O)[C@H]([C@@H](C)CC)N[C@@H]2C=Cc3c([C@H](C)O)cc(nc3[C@H]2O)C(=O)O[C@@H]4C)n1)C(=O)NC(=CNC(=O)c1cccc(/C=N/OC)c1)C(N)=O [RJS-11] | most activity |
| – | 1.4 µg/mL (≈ 0.748 µM) | – | – | 0.5 µg/mL (≈ 0.267 µM) | 0.004 µg/mL (≈ 0.00214 µM) | 0.004 µg/mL (≈ 0.00214 µM) | > 64 µg/mL | 0.5 µg/mL (≈ 0.267 µM) | 0.5 µg/mL (≈ 0.267 µM) | 0.5 µg/mL (≈ 0.267 µM) | 1 µg/mL (≈ 0.534 µM) | 0.5 µg/mL (≈ 0.267 µM) | 0.25 to 0.5 µg/mL (≈ 0.134 to 0.267 µM) | – | C=C(NC(=O)c1csc(C2=N[C@@H]3c4csc(n4)[C@H]4NC(=O)c5csc(n5)[C@H]([C@](C)(O)[C@@H](C)O)NC(=O)C5CSC(=N5)/C(=C/C)NC(=O)[C@H]([C@@H](C)O)NC(=O)c5csc(n5)[C@]3(CC2)NC(=O)[C@H](C)NC(=O)C(=C)NC(=O)[C@H](C)NC(=O)[C@H]([C@@H](C)CC)N[C@@H]2C=Cc3c([C@H](C)O)cc(nc3[C@H]2O)C(=O)O[C@@H]4C)n1)C(=O)NC(=CNC(=O)c1cccc(/C=N/OCCO)c1)C(N)=O [RJS-14] | – |
| – | < 1 µg/mL | – | – | 0.5 µg/mL (≈ 0.274 µM) | 0.002 µg/mL (≈ 0.00109 µM) | 0.004 µg/mL (≈ 0.00219 µM) | > 64 µg/mL | 0.5 µg/mL (≈ 0.274 µM) | 1 µg/mL (≈ 0.547 µM) | 0.5 µg/mL (≈ 0.274 µM) | 0.5 µg/mL (≈ 0.274 µM) | 0.5 µg/mL (≈ 0.274 µM) | 0.25 to 0.5 µg/mL (≈ 0.137 to 0.274 µM) | distinct precipitation | C=C(NC(=O)c1csc(C2=N[C@@H]3c4csc(n4)[C@H]4NC(=O)c5csc(n5)[C@H]([C@](C)(O)[C@@H](C)O)NC(=O)C5CSC(=N5)/C(=C/C)NC(=O)[C@H]([C@@H](C)O)NC(=O)c5csc(n5)[C@]3(CC2)NC(=O)[C@H](C)NC(=O)C(=C)NC(=O)[C@H](C)NC(=O)[C@H]([C@@H](C)CC)N[C@@H]2C=Cc3c([C@H](C)O)cc(nc3[C@H]2O)C(=O)O[C@@H]4C)n1)C(=O)NC(=CNC(=O)c1cccc(/C=N/O)c1)C(N)=O [RJS-17] | – |
